Drawing on ChEMBL document CHEMBL1268990, “Substituted pyrazoles as novel sEH antagonist: investigation of key binding interactions within the catalytic domain” (Bioorg Med Chem Lett, 2010), this text covers Stability for two compounds.

The data set has as its system Liver microsomes. The experiment in a line: Metabolic stability in human liver microsomes. The data set is classed as ADME, Microsome. (In general: Liver microsomes are vesicles of endoplasmic reticulum, rich in cytochrome P450 enzymes.)

Structures are written as SMILES.

The compound `O=C(Nc1ccc(-n2nc(-c3cccnc3)cc2C(F)(F)F)cn1)c1ccccc1` came in with a Stability of 36%. Regarding `O=C(Nc1ccc(-n2nc(-c3cccnc3)cc2C(F)(F)F)nn1)c1ccccc1`, the Stability came out at 31%.
